{"source": "patent US8546421B1", "about": "“Oncogenic-RAS-signal dependent lethal compounds” (The Trustees of Columbia University in the City of New York, priority 2007, dated 2013)", "key": {"HOP-92": {"test_system": "HOP-92", "assay": "NCI60 anti-cancer screening", "conditions": "for GI 100% / GI50: HOP-92; for GI 100%: Non-small cell lung carcinoma; for GI50 / CC50: Homo sapiens; for CC50: HOP-92, read-out: LC 50%"}, "[1]": {"test_system": "BJ-TERT/LT/ST/RAS^V12 cells", "assay": "Alamar blue growth inhibition in dilution series", "format": "cell-based, human", "conditions": "Homo sapiens, alamar blue"}, "SR": {"test_system": "SR", "assay": "NCI60 anti-cancer screening", "conditions": "for GI50 / CC50: Homo sapiens; for CC50: read-out: LC 50%; for GI 100%: Leukemia"}, "K-562": {"test_system": "K-562", "assay": "NCI60 anti-cancer screening", "conditions": "for GI50 / CC50: Homo sapiens; for GI50: K562; for CC50: K562, read-out: LC 50%"}, "MOLT-4": {"test_system": "MOLT-4", "assay": "NCI60 anti-cancer screening", "conditions": "for GI50 / CC50: Homo sapiens; for GI50 / GI 100%: MOLT-4; for CC50: MOLT-4, read-out: LC 50%; for GI 100%: Leukemia"}, "[2]": {"test_system": "BJ-TERT/LT/ST/RAS^V12 cells", "assay": "Counter screening with iron chelators", "format": "cell-based, human", "conditions": "DFOM and three additional iron-binding compounds; 24 hours", "description": "Cells were treated with iron chelators by transferring 4 μL of 1 mM deferoxamine mesylate (Calbiochem, cat.#252750), 500 μM compound 1a (Chembridge, cat.#5175092), 1 mM compound 2 (Ryan Scientific, cat.#LT01784723), or 100 μM compound 311 (Chembridge, cat.#5135701) in growth media to the assay plate. Then, 4 μL was transferred from the ‘10× lethal plate’ (described in ‘counter screening with biologically active compounds’) to the assay plate in order to induce cell death. Assay plates were incubated for 24 hours and alamar blue was added to the plates at a final concentration of 10%."}, "[3]": {"test_system": "BJ-TERT/LT/ST/RAS^V12 cells", "assay": "Counter screening with biologically active compounds", "format": "cell-based, human", "conditions": "for biologically active compounds that suppress compound-induced cell death: 36 bioactive compounds of Table 1, 24 hours, alamar blue", "description": "Biologically active compounds listed in Table 1 were dissolved in BJ medium at 10× final concentration and aliquoted into eppendorf tubes. 100 μL of each 10× solution was transferred to column 1 to column 12 or column 13 to column 24 of a single row in a 384-well daughter plate. This plate was designated as ‘10× biologically active plate’. In order to prepare lethal compound solution, Erastin and compounds 3, 6, 27, and 36 were dissolved in BJ medium at a concentration of 100 μg/mL, 400 μg/mL, 400 μg/mL, 100 μg/mL, and 200 μg/mL, respectively. Empty daughter plates were filled with 50 μL BJ media except for columns 5 and 13 where 100 μL of each lethal solution was transferred. After lethal solution transfer, 2-fold dilution series across columns 5 to 12 and columns 13 to 20 was made by transferring 50 μL compound solution to the next column successively (8-point dilution series), with mixing. These five plates were each designated ‘10× lethal plate’. Five assay plates were prepared by seeding 4,000 BJ-TERT/LT/ST/RAS^V12 cells per well in 32 μL of growth media in black, clear bottom 384-well plates. Cells in assay plates were first treated with biologically active compounds by transferring 4 μL from the 10× inhibitor plate. Cells were then treated with each lethal compound in a 2-fold dilution series by transferring 4 μL solution from each 10× lethal plate. […] Percent growth inhibition (% GI) was calculated by the following formula using fluorescence intensity values: % GI=100*(1−(X−N)/([…])) wherein X is the fluorescent intensity value measured at 590 nm for cells treated with biologically active compound and lethal compound; N is the fluorescent intensity value measured at 590 nm for a control containing no cells (i.e. biologically active compound in growth media); and P is the fluorescent intensity value measured at 590 nm for a control containing no lethal compound (i.e., cells treated with biologically active compound). Counter Screening with Iron Chelators"}, "SW-620": {"test_system": "SW-620", "assay": "NCI60 anti-cancer screening"}, "PaCa-2": {"test_system": "PaCa-2", "assay": "Alamar Blue assay, additional cell lines", "format": "cell-based, human", "conditions": "Pancreatic Cancer", "description": "(§1) The results of this additional testing are summarized in Tables 7-10 (no additional cell lines were identified as sensitive for Compound 3). […] The tumor type, cell line, maximum percentage inhibition, the concentration of compound required to inhibit cell growth by 50%, and RAS mutation (if any) are also summarized."}, "Calu-1": {"test_system": "Calu-1", "assay": "Alamar Blue assay, additional cell lines", "format": "cell-based, human", "conditions": "Calu-1, Non-small cell lung carcinoma, Alamar Blue", "description": "as §1"}, "SK-MEL-2": {"test_system": "SK-MEL-2", "assay": "NCI60 anti-cancer screening"}, "SN12C": {"test_system": "SN12C", "assay": "NCI60 anti-cancer screening"}, "SF-268": {"test_system": "SF-268", "assay": "NCI60 anti-cancer screening"}, "OVCAR-3": {"test_system": "OVCAR-3", "assay": "cells", "conditions": "Homo sapiens"}, "OVCAR-4": {"test_system": "OVCAR-4", "assay": "NCI60 anti-cancer screening"}, "MCF-7": {"test_system": "MCF-7", "assay": "NCI60 anti-cancer screening"}, "COLO 205": {"test_system": "COLO 205", "assay": "NCI60 anti-cancer screening"}, "ACHN": {"test_system": "ACHN", "assay": "NCI60 anti-cancer screening"}, "DU-145": {"test_system": "DU-145", "assay": "NCI60 anti-cancer screening"}}, "data": [{"smiles": "COCCOC(=O)C1=C(C)NC2=C(C(=O)CC(c3ccc(Cl)cc3)C2)C1c1ccccc1F", "note": "(centres unmarked) [Compound 3]", "values": [{"measurement": "GI 100%", "setting": "HOP-92", "value": ">10", "unit": "µM"}, {"measurement": "GI50", "setting": "HOP-92", "value": 6.18, "unit": "µM"}, {"measurement": "CC50", "setting": "HOP-92", "value": "> 10", "unit": "µM"}, {"measurement": "IC90", "setting": "[1]", "value": 10, "unit": "µg/mL"}, {"measurement": "GI50", "setting": "SR", "value": 7.15, "unit": "µM"}, {"measurement": "CC50", "setting": "SR", "value": "> 10", "unit": "µM"}, {"measurement": "GI 100%", "setting": "SR", "value": ">10", "unit": "µM"}, {"measurement": "GI50", "setting": "K-562", "value": 9.16, "unit": "µM"}, {"measurement": "CC50", "setting": "K-562", "value": "> 10", "unit": "µM"}, {"measurement": "GI 100%", "setting": "K-562; K-562, Leukemia", "value": ">10", "unit": "µM"}, {"measurement": "GI50", "setting": "MOLT-4", "value": 8.39, "unit": "µM"}, {"measurement": "CC50", "setting": "MOLT-4", "value": "> 10", "unit": "µM"}, {"measurement": "GI 100%", "setting": "MOLT-4", "value": ">10", "unit": "µM"}, {"measurement": "effect of iron chelators on compound activity / induced cell death", "setting": "[2]", "value": "significantly inhibited"}, {"measurement": "biologically active compounds that suppress compound-induced cell death", "setting": "[3]", "value": "anti-oxidants (GSH, BHT, Vit. E), iron chelators (L-mim, DFOM), and a protein synthesis inhibitor (cycloheximide)"}, {"measurement": "effect of MEK1/2 inhibitor (U0126) on compound-induced cell death", "setting": "[3]; U0126 10 uM", "value": "completely blocked"}]}, {"smiles": "CCc1c(O)c2c(c(O)c1O[C@H]1O[C@@H](COC(C)=O)[C@H](OC(C)=O)[C@@H](CC(C)=O)[C@@H]1OC(C)=O)C(=O)C(O[C@@H]1O[C@H](COC(C)=O)[C@@H](OC(C)=O)[C@H](OC(C)=O)[C@H]1OC(C)=O)=C(O[C@@H]1O[C@H](COC(C)=O)[C@@H](OC(C)=O)[C@H](OC(C)=O)[C@H]1OC(C)=O)C2=O", "note": "[Compound 6]", "values": [{"measurement": "GI50", "setting": "SW-620; Homo sapiens, SW-620", "value": 0.271, "unit": "µM"}, {"measurement": "CC50", "setting": "SW-620; Homo sapiens, SW-620, read-out: LC 50%", "value": 3.9, "unit": "µM"}, {"measurement": "GI 100%", "setting": "SW-620; SW-620, Colon Cancer", "value": 1.03, "unit": "µM"}, {"measurement": "GI50", "setting": "PaCa-2; Homo sapiens", "value": 0.6, "unit": "µM"}, {"measurement": "Maximum Inhibition %", "setting": "PaCa-2", "value": 100, "unit": "%"}, {"measurement": "Maximum Inhibition %", "setting": "Calu-1", "value": 100, "unit": "%"}, {"measurement": "GI50", "setting": "Calu-1; Homo sapiens", "value": 2.5, "unit": "µM"}, {"measurement": "GI50", "setting": "SK-MEL-2; Homo sapiens, SK-MEL-2", "value": 2.32, "unit": "µM"}, {"measurement": "CC50", "setting": "SK-MEL-2; Homo sapiens, SK-MEL-2, read-out: LC 50%", "value": "> 10", "unit": "µM"}, {"measurement": "GI 100%", "setting": "SK-MEL-2; SK-MEL-2, Melanoma", "value": 6.87, "unit": "µM"}, {"measurement": "GI50", "setting": "SN12C; Homo sapiens", "value": 8.1, "unit": "µM"}, {"measurement": "CC50", "setting": "SN12C; Homo sapiens, read-out: LC 50%", "value": "> 10", "unit": "µM"}, {"measurement": "GI 100%", "setting": "SN12C; Renal Cancer", "value": ">10", "unit": "µM"}, {"measurement": "GI 100%", "setting": "HOP-92", "value": 4.31, "unit": "µM"}, {"measurement": "GI50", "setting": "HOP-92", "value": 1.48, "unit": "µM"}, {"measurement": "CC50", "setting": "HOP-92", "value": "> 10", "unit": "µM"}, {"measurement": "GI50", "setting": "SF-268; Homo sapiens, SF-268", "value": 2.46, "unit": "µM"}, {"measurement": "CC50", "setting": "SF-268; Homo sapiens, SF-268, read-out: LC 50%", "value": "> 10", "unit": "µM"}, {"measurement": "GI 100%", "setting": "SF-268; SF-268, CNS Cancer", "value": 7.71, "unit": "µM"}, {"measurement": "GI50", "setting": "OVCAR-3; OVCAR-3", "value": 3.52, "unit": "µM"}, {"measurement": "CC50", "setting": "OVCAR-3; OVCAR-3, read-out: LC 50%", "value": "> 10", "unit": "µM"}, {"measurement": "GI50", "setting": "OVCAR-4; Homo sapiens, OVCAR-4", "value": 5.71, "unit": "µM"}, {"measurement": "CC50", "setting": "OVCAR-4; Homo sapiens, OVCAR-4, read-out: LC 50%", "value": "> 10", "unit": "µM"}, {"measurement": "GI 100%", "setting": "OVCAR-4; OVCAR-4, Ovarian Cancer", "value": ">10", "unit": "µM"}, {"measurement": "IC90", "setting": "[1]", "value": 2.5, "unit": "µg/mL"}, {"measurement": "GI50", "setting": "SR", "value": 2.65, "unit": "µM"}, {"measurement": "CC50", "setting": "SR", "value": "> 10", "unit": "µM"}, {"measurement": "GI 100%", "setting": "SR", "value": 8.4, "unit": "µM"}, {"measurement": "GI50", "setting": "K-562", "value": 0.238, "unit": "µM"}, {"measurement": "CC50", "setting": "K-562", "value": "> 10", "unit": "µM"}, {"measurement": "GI50", "setting": "MCF-7; Homo sapiens, MCF7", "value": 1.55, "unit": "µM"}, {"measurement": "CC50", "setting": "MCF-7; Homo sapiens, MCF7, read-out: LC 50%", "value": 9.18, "unit": "µM"}, {"measurement": "GI 100%", "setting": "MCF-7; MCF-7, Breast Cancer", "value": 3.78, "unit": "µM"}, {"measurement": "GI 100%", "setting": "COLO 205; COLO 205, Colon Cancer", "value": 1.26, "unit": "µM"}, {"measurement": "GI50", "setting": "COLO 205; Homo sapiens, COLO 205", "value": 0.232, "unit": "µM"}, {"measurement": "CC50", "setting": "COLO 205; Homo sapiens, COLO 205, read-out: LC 50%", "value": 4.78, "unit": "µM"}, {"measurement": "GI50", "setting": "MOLT-4", "value": 0.783, "unit": "µM"}, {"measurement": "CC50", "setting": "MOLT-4", "value": "> 10", "unit": "µM"}, {"measurement": "GI 100%", "setting": "MOLT-4", "value": 3.91, "unit": "µM"}, {"measurement": "GI50", "setting": "ACHN; Homo sapiens", "value": 8.76, "unit": "µM"}, {"measurement": "CC50", "setting": "ACHN; Homo sapiens, read-out: LC 50%", "value": "> 10", "unit": "µM"}, {"measurement": "GI 100%", "setting": "ACHN; Renal Cancer", "value": ">10", "unit": "µM"}, {"measurement": "biologically active compounds that suppress compound-induced cell death", "setting": "[3]", "value": "only reduced glutathione (GSH) was able to inhibit"}, {"measurement": "GI 100%", "setting": "DU-145; DU-145, Prostate Cancer", "value": ">10", "unit": "µM"}, {"measurement": "GI50", "setting": "DU-145; Homo sapiens, DU-145", "value": 5.28, "unit": "µM"}, {"measurement": "CC50", "setting": "DU-145; Homo sapiens, DU-145, read-out: LC 50%", "value": "> 10", "unit": "µM"}]}]}
